Columns and labels:
human mTOR = target: T1, human mTOR (Homo sapiens, UniProt P42345); experiment: mTOR Kinase Activity Inhibition Test; type: biochemical; settings: His-tagged mTOR (1362C), biotinylated peptide substrate, ATP, 3 hours at room temperature, fluorescence resonance energy transfer 665 nm/620 nm; read-out: IC50 value of mTOR enzyme inhibitory activity
T1 construct: the portion corresponding to 1362-2549aa at the C terminus of human mTOR; made in house
Summary of the method: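 Purified His-tagged human mTOR (1362–2549aa, from HEK293) was used with biotinylated peptide (8 μg/mL in enzyme solution) in HEPES pH 7.5 with 20 mM MnCl2. Compounds were diluted in 20 μM ATP solution, and the reaction ran 3 h at RT. Phospho-S6K(Thr389) HTRF was read as the 665/620 nm ratio, and IC50 came from % inhibition versus controls.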

WM-266-4 cells = experiment: Cell Proliferation Inhibitory Test; type: cell-based; settings: Homo sapiens, 72 h, cultured three days with test compound, MTT, read-out: 50% cell proliferation inhibitory activity (GI50 value)
Summary of the method: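 Cells cultured overnight, then exposed to serially diluted compound for three days; cell amount read by MTT. GI50 solved from 100×[(T−T0)/(C−T0)]=50, with T0 the value at time of compound addition and C the untreated three-day control.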

T1 sequence (P42345 1362-2549): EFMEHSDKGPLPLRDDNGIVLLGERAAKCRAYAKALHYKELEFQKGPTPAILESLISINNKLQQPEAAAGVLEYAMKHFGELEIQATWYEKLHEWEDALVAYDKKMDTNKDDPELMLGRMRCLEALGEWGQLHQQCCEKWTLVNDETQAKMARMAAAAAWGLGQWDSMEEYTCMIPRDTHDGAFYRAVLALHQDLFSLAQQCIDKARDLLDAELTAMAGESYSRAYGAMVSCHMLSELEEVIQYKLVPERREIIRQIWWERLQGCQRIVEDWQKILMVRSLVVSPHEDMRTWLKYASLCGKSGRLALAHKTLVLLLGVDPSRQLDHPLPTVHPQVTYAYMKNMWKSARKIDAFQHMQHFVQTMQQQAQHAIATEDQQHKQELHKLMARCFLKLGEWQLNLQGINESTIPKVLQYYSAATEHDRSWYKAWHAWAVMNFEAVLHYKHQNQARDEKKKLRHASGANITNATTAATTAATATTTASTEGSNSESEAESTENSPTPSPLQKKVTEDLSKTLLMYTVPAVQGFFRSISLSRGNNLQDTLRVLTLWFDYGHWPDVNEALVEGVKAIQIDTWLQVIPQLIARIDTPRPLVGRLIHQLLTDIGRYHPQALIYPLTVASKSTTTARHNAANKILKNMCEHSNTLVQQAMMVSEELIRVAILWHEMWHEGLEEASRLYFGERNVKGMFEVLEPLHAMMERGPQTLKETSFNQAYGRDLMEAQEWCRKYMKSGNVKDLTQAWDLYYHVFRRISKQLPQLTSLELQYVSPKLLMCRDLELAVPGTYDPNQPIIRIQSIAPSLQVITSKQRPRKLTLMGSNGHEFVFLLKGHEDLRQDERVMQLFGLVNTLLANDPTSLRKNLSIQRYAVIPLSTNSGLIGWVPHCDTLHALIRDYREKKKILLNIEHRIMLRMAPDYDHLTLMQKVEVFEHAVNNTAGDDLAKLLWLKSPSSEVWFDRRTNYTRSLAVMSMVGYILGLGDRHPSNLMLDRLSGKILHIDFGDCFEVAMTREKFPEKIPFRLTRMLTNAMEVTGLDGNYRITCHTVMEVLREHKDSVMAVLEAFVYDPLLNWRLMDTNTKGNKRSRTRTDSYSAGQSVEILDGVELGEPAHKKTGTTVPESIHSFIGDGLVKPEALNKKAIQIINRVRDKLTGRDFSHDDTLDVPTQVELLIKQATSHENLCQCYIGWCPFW

SMILES	IC50 (human mTOR) [nM]	GI50 (WM-266-4 cells) [nM]
O=c1[nH]c2ncc(-c3ccc4[nH]ccc4n3)cc2n1CC1CCOCC1 [Example 82, 6-(1H-Pyrrolo[3,2-b]pyridin-5-yl)-1-(tetrahydro-2H-pyran-4-ylmethyl)-1,3-dihydro-2H-imidazo[4,5-b]pyridin-2-one]	< 50	< 3000
O=c1[nH]c2ncc(-c3cc4cc[nH]c4cn3)cc2n1CC1CCOCC1 [Example 83, 6-(1H-Pyrrolo[2,3-c]pyridin-5-yl)-1-(tetrahydro-2H-pyran-4-ylmethyl)-1,3-dihydro-2H-imidazo[4,5-b]pyridin-2-one]	< 50	< 3000
O=c1[nH]c2ncc(-c3cnc4[nH]cc(C(F)(F)F)c4c3)cc2n1CC1CCOCC1 [Example 84, 1-(Tetrahydro-2H-pyran-4-ylmethyl)-6-[3-(trifluoromethyl)-1H-pyrrolo[2,3-b]pyridin-5-yl]-1,3-dihydro-2H-imidazo[4,5-b]pyridin-2-one]	< 50	3000 to 25000
CC(=O)c1c[nH]c2ncc(-c3cnc4[nH]c(=O)n(CC5CCOCC5)c4c3)cc12 [Example 85, 6-(3-Acetyl-1H-pyrrolo[2,3-b]pyridin-5-yl)-1-(tetrahydro-2H-pyran-4-ylmethyl)-1,3-dihydro-2H-imidazo[4,5-b]pyridin-2-one]	100 to 5000	3000 to 25000
CCOCc1cc2cc(-c3cnc4[nH]c(=O)n(CC5CCOCC5)c4c3)cnc2[nH]1 [Example 86, 6-[2-(Ethoxymethyl)-1H-pyrrolo[2,3-b]pyridin-5-yl]-1-(tetrahydro-2H-pyran-4-ylmethyl)-1,3-dihydro-2H-imidazo[4,5-b]pyridin-2-one]	100 to 5000	3000 to 25000
Cc1[nH]c2ncc(-c3cnc4[nH]c(=O)n(CC5CCOCC5)c4c3)cc2c1C [Example 87, 6-(2,3-Dimethyl-1H-pyrrolo[2,3-b]pyridin-5-yl)-1-(tetrahydro-2H-pyran-4-ylmethyl)-1,3-dihydro-2H-imidazo[4,5-b]pyridin-2-one]	100 to 5000	3000 to 25000
O=c1[nH]c2ncc(-c3cnc4cc[nH]c4c3)cc2n1CC1CCOCC1 [Example 88, 6-(1H-Pyrrolo[3,2-b]pyridin-6-yl)-1-(tetrahydro-2H-pyran-4-ylmethyl)-1,3-dihydro-2H-imidazo[4,5-b]pyridin-2-one]	100 to 5000	< 3000
CN(C)Cc1c[nH]c2ncc(-c3cnc4[nH]c(=O)n(CC5CCOCC5)c4c3)cc12 [Example 89, 6-{3-[(Dimethylamino)methyl]-1H-pyrrolo[2,3-b]pyridin-5-yl}-1-(tetrahydro-2H-pyran-4-ylmethyl)-1,3-dihydro-2H-imidazo[4,5-b]pyridin-2-one]	100 to 5000	3000 to 25000
CC(C)c1c[nH]c2ncc(-c3cnc4[nH]c(=O)n(CC5CCOCC5)c4c3)cc12 [Example 90, 6-{3-Isopropyl-1H-pyrrolo[2,3-b]pyridin-5-yl}-1-(tetrahydro-2H-pyran-4-ylmethyl)-1,3-dihydro-2H-imidazo[4,5-b]pyridin-2-one]	< 50	< 3000
N#Cc1c(-c2cnc3[nH]c(=O)n(CC4CCOCC4)c3c2)cnc2[nH]ccc12 [Example 91, 5-[2-Oxo-1-(tetrahydro-2H-pyran-4-ylmethyl)-2,3-dihydro-1H-imidazo[4,5-b]pyridin-6-yl]-1H-pyrrolo[2,3-b]pyridine-4-carbonitrile]	100 to 5000	< 3000
CCOC(=O)c1c[nH]c2ncc(-c3cnc4[nH]c(=O)n(CC5CCOCC5)c4c3)cc12 [Example 92, Ethyl 5-[2-oxo-1-(tetrahydro-2H-pyran-4-ylmethyl)-2,3-dihydro-1H-imidazo[4,5-b]pyridin-6-yl]-1H-pyrrolo[2,3-b]pyridine-3-carboxylate]	< 50	< 3000
O=C(O)c1c[nH]c2ncc(-c3cnc4[nH]c(=O)n(CC5CCOCC5)c4c3)cc12 [Example 93, 5-[2-oxo-1-(tetrahydro-2H-pyran-4-ylmethyl)-2,3-dihydro-1H-imidazo[4,5-b]pyridin-6-yl]-1H-pyrrolo[2,3-b]pyridine-3-carboxylic acid]	< 50	3000 to 25000

From patent US8436012B2, “Imidazopyridin-2-one derivatives” (Daiichi Sankyo Company, Limited, priority 2008, dated 2013)
